Experimental data reported in article PMC4416907, “An Unexpected Mode Of Binding Defines BMS948 as A Full Retinoic Acid Receptor β (RARβ, NR1B2) Selective Agonist” (PLoS ONE, 2015).

Columns and labels:
[1] = test system: RARβ; conditions: cited from earlier work
[2] = test system: RARγ; conditions: also personal data not shown; cited from earlier work
[3] = test system: T1, RARβ→γ; experiment: Transient transactivation assay with chimeric LBP mutant RARβ→γ in HeLa cells; type: cell-based
T1 construct: expressed in transfected cells; host or cells: HeLa
From the text: (§1) Supplementary file pone.0123195.s004.eps: S4 Fig The methionine 272 of RARγ LBP is a most important discriminatory element for the RARβ-specific response to BMS948. […] To investigate the role of these residues in the RARβ–specific response to BMS948, we compared the agonistic and antagonistic potentials of this compound for RARβ and RARγ, as well as chimeric RAR mutants in which LBPs were interconverted (denoted RARβ→γ and RARγ→β). Dose-response curves were established from transient transfection in HeLa cells of these proteins and a (RARE)3x-tk-luciferase reporter gene as described in Figs 2 and 3. […] (A) HeLa cells were transiently cotransfected with the reporter (RARE)3x-tk-Luc and RARβ (open circles), RARγ (closed diamonds), RARγ→β in which the methionine residue 272 in RARγ LBP is replaced by an isoleucine residue (open squares), or RARβ→γ in which the isoleucine residue 263 in RARβ LBP is replaced by a methionine residue (closed triangles) to assess the agonist potential of BMS948. […] (B) Transient transfection assays in HeLa cells with the reporter (RARE)3x-tk-Luc and RARβ→γ as in (A) to assess the antagonist potential of BMS948 and BMS493. […] (EPS) Click here for additional data file.

[4] = biological target: T2, RARα (Homo sapiens, UniProt P10276); experiment: Transient transactivation assay, antagonist mode (competition with TTNPB-induced activity); type: cell-based; conditions: reporter activated with 3 nM TTNPB (100%); retinoids at 1 μM or increasing amounts
T2 construct: expressed in transfected cells; host or cells: HeLa
T2 sequence (P10276 1-462): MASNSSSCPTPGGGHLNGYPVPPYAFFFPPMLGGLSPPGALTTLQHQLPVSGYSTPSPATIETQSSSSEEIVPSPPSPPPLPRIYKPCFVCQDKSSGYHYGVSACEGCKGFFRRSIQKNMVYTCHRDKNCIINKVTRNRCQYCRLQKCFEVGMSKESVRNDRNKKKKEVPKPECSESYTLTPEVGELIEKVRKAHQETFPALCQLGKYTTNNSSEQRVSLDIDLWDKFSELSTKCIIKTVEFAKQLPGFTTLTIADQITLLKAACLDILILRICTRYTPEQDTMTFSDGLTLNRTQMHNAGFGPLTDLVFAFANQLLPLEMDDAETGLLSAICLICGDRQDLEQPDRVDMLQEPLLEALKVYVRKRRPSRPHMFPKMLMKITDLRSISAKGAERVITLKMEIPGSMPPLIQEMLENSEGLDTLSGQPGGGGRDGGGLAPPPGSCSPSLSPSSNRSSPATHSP
Experimental: (§2) To this end, transient transactivation assays were conducted in order to assess the ability of the synthetic retinoids to affect TTNPB-induced RAR activity. […] Competition curves with increasing concentrations of BMS411 yielded an IC50 of roughly 30 nM for RARα in keeping with the high affinity of this compound for this receptor subtype (Fig 3D). […] Overall, our data lead to the general conclusion that BMS948 is a full RARβ-selective agonist.
(§3) Fig 3 BMS948 is an RARβ-selective ligands. (A to C) Transient transactivation assays as in Fig 2 to assess the antagonist potential of synthetic RAR ligands (RARα (A), RARβ (B) or RARγ (C)).
(§4) HeLa cells were cultured in DMEM with Glutamax and 10% (v/v) FCS and transfected using JetPei transfectant (Ozyme). After 24 h, the medium was changed to a medium containing the indicated ligands or vehicle. Cells were lysed and assayed for reporter expression 48 h after transfection. The luciferase assay system was used according to the manufacturer’s instruction (Promega). In each case results were normalized to coexpressed β–galactosidase. Each transfection was carried out in duplicate and repeated each three to six times.

[5] = test system: T3, RARγ; experiment: as above; type: cell-based, human; conditions: reporter activated with 3 nM TTNPB (100%); retinoids at 1 μM or increasing amounts
T3 construct: expressed in transfected cells; host or cells: HeLa
Experimental: as §2, §3, §4

[6] = test system: T4, RARβ; experiment: as above; type: cell-based, human; conditions: reporter activated with 3 nM TTNPB (100%); retinoids at 1 μM or increasing amounts
T4 construct: expressed in transfected cells; host or cells: HeLa
Experimental: as §2, §3, §4

[7] = test system: T5, hRARβL298F; experiment: Transient transactivation assay with mutant hRARβL298F in HeLa cells; type: cell-based, human
T5 construct: expressed in transfected cells; host or cells: HeLa
Experimental: The construct was verified by DNA sequencing.
as §4
(EPS) Click here for additional data file.

[8] = test system: T6, RARγ→β; experiment: Transient transactivation assay with chimeric LBP mutant RARγ→β in HeLa cells; type: cell-based; conditions: 10^–9 to 10^–6 M; 100% = TTNPB at 10nM
T6 construct: expressed in transfected cells; host or cells: HeLa
From the text: as §1

[9] = test system: T7, RARβ-SMRT interaction; experiment: Mammalian two-hybrid assay Gal-SMRT / VP16-RARβLBD in HeLa cells; type: cell-based; conditions: BMS compounds at 1 μM, TTNPB 10 nM; 100% = absence of ligand
T7 construct: expressed in transfected cells; host or cells: HeLa
From the text: (§5) Supplementary file pone.0123195.s005.eps: S5 Fig Molecular basis of BMS641 partial activity. According to the current model of gene regulation by RARs, the agonistic property of a given retinoid depends on its ability to induce coregulator recruitment. RAR agonists dissociate corepressors (such as SMRT) and induce the recruitment coactivators (such as TIF2), resulting in transactivation. […] BMS641 was therefore categorized as a partial RARβ agonist. To further characterize the partial activity of BMS641, we used two-hybrid assays to monitor the interaction between RARβ and transcriptional coregulators in the presence of various retinoids. In these assays, a chimeric luciferase-based reporter gene ((17 m)5x-βGlob-Luc) is transfected together with two expression vectors. One expresses a fusion protein (Gal-TIF2 or Gal-SMRT) that binds through the Gal DNA binding domain (Gal) to the pentamer of the “17m” DNA recognition site in the reporter gene and contains the nuclear receptor interacting domain of the coregulator. The other vector expresses a second fusion protein composed of the VP16 acidic transcription activation domain, and the LBD of RARβ. […] Strikingly, the RARβ-SMRT interaction was maintained in the presence of BMS641, in agreement with the partial agonistic activity of this compound. […] BMS641 induces reduced coactivator recruitment, but cannot dissociate corepressors. […]

[10] = test system: T8, human RARα1; experiment: Transient transactivation reporter assay, (RARE)3x-tk-luciferase in HeLa cells, agonist mode; type: cell-based; conditions: for agonistic activity on RARα-mediated transactivation: HeLa cells, ligand at single selective concentration, compared with 10 nM TTNPB (100%)
T8 construct: expressed in transfected cells; host or cells: HeLa
From the text: (§6) To evaluate the activity of a panel of synthetic retinoids (Fig 1) on RAR-mediated transactivation, we used HeLa cells transiently transfected with human RARα1,-β2, or—γ2 and a (RARE)3x-tk-luciferase reporter gene. Well characterized full agonist and antagonist retinoids were also used as reference compounds (S2 Fig). […] To further characterize the activation profile of BMS compounds, transfected cells were exposed to a range of ligand concentrations to establish dose-response curves.
(§7) (A to C) HeLa cells were transiently cotransfected with the reporter (RARE)3x-tk-Luc and RARα (A), RARβ (B) or RARγ (C), as indicated, to assess the RAR agonist potential of synthetic RAR ligands.
as §4

[11] = test system: T9, human RARγ2; experiment: as above; type: cell-based
T9 construct: expressed in transfected cells; host or cells: HeLa
From the text: as §6, §7, §4

[12] = biological target: T10, human RARβ2 (Homo sapiens, UniProt P10826); experiment: as above; type: cell-based
T10 construct: expressed in transfected cells; host or cells: HeLa
T10 sequence (P10826 1-448 isoform P10826-2): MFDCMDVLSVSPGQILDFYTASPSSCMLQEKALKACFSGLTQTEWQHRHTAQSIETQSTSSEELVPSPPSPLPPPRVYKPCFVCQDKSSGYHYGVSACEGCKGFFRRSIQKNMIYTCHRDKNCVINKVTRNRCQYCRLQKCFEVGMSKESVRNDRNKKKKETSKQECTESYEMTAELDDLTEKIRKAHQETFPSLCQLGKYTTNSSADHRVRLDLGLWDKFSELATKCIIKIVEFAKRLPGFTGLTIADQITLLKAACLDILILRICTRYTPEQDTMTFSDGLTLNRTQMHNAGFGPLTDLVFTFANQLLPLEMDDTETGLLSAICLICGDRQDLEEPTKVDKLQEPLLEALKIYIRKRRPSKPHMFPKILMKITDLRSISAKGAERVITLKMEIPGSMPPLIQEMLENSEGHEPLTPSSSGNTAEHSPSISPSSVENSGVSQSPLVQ
From the text: as §6, §7, §4

[13] = test system: T11, RARβ-TIF2 interaction; experiment: Mammalian two-hybrid assay Gal-TIF2 / VP16-RARβLBD in HeLa cells; type: cell-based; conditions: BMS compounds at 1 μM, TTNPB 10 nM
T11 construct: expressed in transfected cells; host or cells: HeLa
From the text: as §5

[14] = 10^–10 to 10^–6 M, only at the highest ligand concentration used (1 μM)

Row | SMILES | reported activity on RARβ [1] | reported activity on RARγ [2] | antagonist potential on RARβ→γ ([3]; 3 nM TTNPB (100%) plus compound at 1 μM) | agonist potential on RARβ→γ ([3]; 10^–9 to 10^–6 M, 100% = TTNPB at 10nM, only at high concentration) | antagonistic activity on TTNPB-induced RARα transactivation [4] | antagonistic activity on TTNPB-induced RARγ transactivation [5] | antagonistic activity on TTNPB-induced RARβ transactivation [6] | efficacy on RARβL298F in dose-response curves ([7]; S6 Fig, increasing concentrations) | transcriptional activity on RARβL298F as compared to TTNPB ([7]; retinoids at 0.1 μM, 10 nM TTNPB = 100% with wild-type hRARβ) | agonist potential on RARγ→β [8] | RARβ-SMRT interaction (corepressor binding) [9] | activation of RARα in dose-response curves [10, 14] | agonistic activity on RARα-mediated transactivation [10] | activation of RARγ in dose-response curves [11, 14] | agonistic activity on RARγ-mediated transactivation ([11]; HeLa cells, ligand at single selective concentration, compared with 10 nM TTNPB (100%)) | EC50 ([12]; dose-response 10^–10 to 10^–6 M, read-out: EC50 transactivation for RARβ) | agonistic activity on RARβ-mediated transactivation ([12]; ligand at single selective concentration, compared with 10 nM TTNPB (100%)) | RARβ-TIF2 interaction (coactivator recruitment) [13]
1 | CN1c2cc3c(cc2N=C(c2ccc(C(=O)O)cc2)c2ccccc21)C(C)(C)CCC3(C)C [LE135] | antagonist showing some selectivity for RARβ | some RARγ partial agonistic activity | – | – | – | – | – | – | – | – | – | – | – | – | – | – | – | –
2 | O=C(O)c1ccc(NC(=O)c2ccc3cccc(-c4ccccc4)c3c2)cc1 [BMS948] | – | – | did not reduce TTNPB-induced activity | very weak activation | very weak | very weak | no | 70% | 50–60% | potent full agonist | decreased | very weakly | very weak activity | very weakly | very weak activity | ~0.1 µM | full RARβ-agonist | optimal
3 | CC1(C)CCC(C)(C)c2cc(C(=O)Nc3ccc(C(=O)O)cc3)ccc21 [Am580, reference compound] | – | – | – | – | – | – | – | – | – | – | – | – | full agonistic activity | – | – | – | – | –
